Experimental findings from paper PMC5840146, “Structure-Activity Relationship Analysis of 3-Phenylcoumarin-Based Monoamine Oxidase B Inhibitors” (Frontiers in Chemistry, 2018) are described below.

Several values for one entry are separate records, joined by “and”; a condition that tells them apart may be missing. Equal entries are not always repeated.

In one experiment the target is T1, MAO-B (Homo sapiens, UniProt P27338).
T1 construct: purchased Sigma-Aldrich
T1 sequence (P27338 1-520): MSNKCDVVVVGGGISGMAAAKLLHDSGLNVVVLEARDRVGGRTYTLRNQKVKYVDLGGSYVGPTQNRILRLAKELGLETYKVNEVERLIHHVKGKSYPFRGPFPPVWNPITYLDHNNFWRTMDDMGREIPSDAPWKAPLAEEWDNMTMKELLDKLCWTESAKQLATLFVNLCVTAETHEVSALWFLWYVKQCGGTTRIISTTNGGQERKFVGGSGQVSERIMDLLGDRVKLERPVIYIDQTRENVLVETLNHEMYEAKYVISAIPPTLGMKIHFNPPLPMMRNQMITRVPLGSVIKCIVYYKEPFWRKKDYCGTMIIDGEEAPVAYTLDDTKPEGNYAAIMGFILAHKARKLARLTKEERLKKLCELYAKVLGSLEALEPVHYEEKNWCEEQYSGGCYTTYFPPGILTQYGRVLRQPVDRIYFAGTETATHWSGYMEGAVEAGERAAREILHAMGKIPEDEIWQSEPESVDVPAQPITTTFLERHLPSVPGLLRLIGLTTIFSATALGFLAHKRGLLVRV
The experiment can be described thus: continuous spectrophotometric MAO-B inhibition assay. Format: biochemical. As to conditions: for LiPE: LiPE = pIC50 - QPlogPo/w, new analogs and pargyline; for IC50: dilution series 50 μM to 1 nM, duplicates, read-out: MAO-B inhibition IC50; for MAO-B inhibition %: 10 µM, 2h.

The next experiment concerns the target T2, ERα (Homo sapiens, UniProt P03372).
T2 construct: purchased Life Technologies
T2 sequence (P03372 1-595): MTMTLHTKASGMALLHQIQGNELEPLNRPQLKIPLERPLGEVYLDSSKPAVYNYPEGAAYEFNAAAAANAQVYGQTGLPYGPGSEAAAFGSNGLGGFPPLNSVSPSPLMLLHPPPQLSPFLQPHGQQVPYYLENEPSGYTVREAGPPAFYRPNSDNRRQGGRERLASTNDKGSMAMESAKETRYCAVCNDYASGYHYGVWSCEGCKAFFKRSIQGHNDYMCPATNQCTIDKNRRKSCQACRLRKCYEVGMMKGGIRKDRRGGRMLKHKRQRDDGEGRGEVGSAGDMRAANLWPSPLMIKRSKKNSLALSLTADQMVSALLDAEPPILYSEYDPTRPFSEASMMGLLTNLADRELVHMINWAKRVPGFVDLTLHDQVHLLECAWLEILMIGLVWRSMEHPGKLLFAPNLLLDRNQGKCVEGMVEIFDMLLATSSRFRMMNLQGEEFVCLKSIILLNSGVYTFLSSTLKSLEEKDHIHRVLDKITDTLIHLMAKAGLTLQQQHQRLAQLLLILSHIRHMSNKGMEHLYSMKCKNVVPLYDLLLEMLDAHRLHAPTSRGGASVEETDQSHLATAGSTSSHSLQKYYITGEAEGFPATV
The experiment can be described thus: PolarScreen ER Alpha Competitor Assay (fluorescence polarization). Format: binding. As to conditions: for inhibition at 10 µM / ER inhibition %: 10 μM. As for the experimental part: The pIC50 values for the derivatives (Table 1, Supplementary Table S1) were measured with green PolarScreen™ ER Alpha Competitor Assay (Life Technologies, CA, The United States of America) kit, following the manufacturer protocol as previously described (Niinivehmas et al., [2016]). The final concentration of the compounds ranged from 0.0007 to 10 000 nM in the dilution series which were performed as duplicates. The molecules were combined with 25 nM ERα and 4.5 nM fluormone in the assay buffer and placed on black low volume 384-well assay plate with NBS surface (Corning, NY, The United States of America). After mixing the assay plate, it was incubated for 2 h in RT. The fluorescence polarization was measured using excitation wave length 485 and emission wave length 535 with bandwidths of 25/20 nm on a 2104 EnVision® Multilabel Plate Reader which had EnVision Workstation version 1.7 (PerkinElmer, MA, The United States of America).
Background: Polarisation of emitted light reports the rotation of a fluorescent probe.

A word on the inhibition: it is the change of the read-out against control, counted positive when it falls. A word on the IC50: it is the concentration that inhibits the measured activity by half. In the case of `Cc1ccc2oc(=O)c(-c3ccc(F)cc3)cc2c1` [derivative 23, 3-(4-fluorophenyl)-6-methyl-2H-chromen-2-one], on MAO-B, the inhibition at 10 µM is 83.5%, the LiPE was 2.46 and the IC50 is 902 nM. Also, the inhibition at 10 µM on ERα was found to be 0%.

Take `COc1ccc2oc(=O)c(-c3cc(F)c(F)cc3F)cc2c1` [derivative 15, 6-methoxy-3-(2,4,5-trifluorophenyl)-2H-chromen-2-one]: on MAO-B, the inhibition at 10 µM was 87.2%, the LiPE amounted to 2.80 and the IC50 amounted to 292 nM. Also, the inhibition at 10 µM on ERα came out at 0%.

With `Cc1ccc2oc(=O)c(-c3ccc(C(F)(F)F)cc3)cc2c1` [derivative 5, 6-methyl-3-(4-(trifluoromethyl)phenyl)-2H-chromen-2-one], at MAO-B, the inhibition at 10 µM was 105%, the LiPE stood at 2.11 and the IC50 turned out to be 343 nM. In addition, the inhibition at 10 µM at ERα was found to be 1.08%.

With `O=c1oc2cc(O)ccc2cc1-c1ccccc1` [derivative 41], at MAO-B, the “MAO-B inhibition (in words)” value is given as “activity is lost” and the MAO-B inhibition % is on record as 23.82%. In addition, at ERα, the “ER activity (in words)” value is “prominent” and the ER inhibition % worked out at 101.40%.

Take `COc1ccc(-c2cc3ccccc3oc2=O)cc1` [derivative 36]: the MAO-B inhibition % at MAO-B came to 41.12%. For the same compound, the ER inhibition % at ERα is recorded as 0.00%.

At MAO-B, `COc1ccc(-c2cc3cccc(O)c3oc2=O)cc1` [derivative 33] returned an MAO-B inhibition % of 47.64%. Besides, the ER inhibition % on ERα was determined as 0.00%.

As to `O=c1oc2ccccc2cc1-c1ccc(O)cc1` [derivative 29], at MAO-B, the MAO-B inhibition % was found to be 53.65%. Moreover, at ERα, the “ER activity (in words)” value was “prominent” and the ER inhibition % amounted to 74.22%.

In turn, `Cc1ccc(-c2cc3ccc(O)cc3oc2=O)cc1` [derivative 27] gave an MAO-B inhibition % at MAO-B of 61.91%. Also, on ERα, the “ER activity (in words)” value was “prominent” and the ER inhibition % is 70.96%.

`O=c1oc2cc(O)ccc2cc1-c1ccc(O)cc1` [derivative 30]: the MAO-B inhibition % at MAO-B is reported as 52.68%. Moreover, at ERα, the “ER activity (in words)” value is given as “prominent” and the ER inhibition % is listed as 58.53%.

On MAO-B, `O=c1oc2ccc(O)cc2cc1-c1ccc(O)cc1` [derivative 48] came in with an MAO-B inhibition % of 15.50%. For the same compound, at ERα, the “ER activity (in words)” value is on record as “prominent” and the ER inhibition % is 98.41%.

In the case of `COc1ccc2cc(-c3cc(F)c(F)cc3F)c(=O)oc2c1` [derivative 16, 7-methoxy-3-(2,4,5-trifluorophenyl)-2H-chromen-2-one], on MAO-B, the inhibition at 10 µM amounted to 77.6%, the LiPE was 2.13 and the IC50 is 1430 nM. In addition, the inhibition at 10 µM on ERα worked out at 8.8%.

Regarding `COc1cccc(-c2cc3ccccc3oc2=O)c1` [derivative 11, 3-(3-methoxyphenyl)-2H-chromen-2-one], on MAO-B, the inhibition at 10 µM worked out at 90.3%, the LiPE amounted to 3.04 and the IC50 amounted to 798 nM. Also, the inhibition at 10 µM at ERα was determined as 0.29%.

For the compound `COc1cccc(-c2cc3ccc(OC)cc3oc2=O)c1` [derivative 25], the MAO-B inhibition % on MAO-B was determined as 67.49%. For the same compound, the ER inhibition % at ERα is listed as 0.00%.

Compound `O=c1oc2ccc(O)cc2cc1-c1cccc(O)c1` [derivative 38] had an MAO-B inhibition % on MAO-B of 27.16%. For the same compound, the ER inhibition % on ERα worked out at 18.53%.

In the case of `COc1ccc2oc(=O)c(-c3ccc(F)cc3)cc2c1` [derivative 21, 3-(4-fluorophenyl)-6-methoxy-2H-chromen-2-one], at MAO-B, the inhibition at 10 µM stood at 88.8%, the LiPE is 3.04 and the IC50 was 433 nM. The inhibition at 10 µM at ERα was 0%.

`COc1cccc(-c2cc3cc(OC)ccc3oc2=O)c1` [derivative 8, 6-methoxy-3-(3-methoxyphenyl)-2H-chromen-2-one]: on MAO-B, the inhibition at 10 µM was found to be 112%; the LiPE amounted to 3.53; the IC50 was ~230 nM and 230 nM and 231 nM. The inhibition at 10 µM at ERα came out at 0%.

Turning to `COc1ccc2oc(=O)c(-c3ccc(N(C)C)cc3)cc2c1` [derivative 18, 3-(4-(dimethylamino)phenyl)-6-methoxy-2H-chromen-2-one], at MAO-B, the inhibition at 10 µM is 93.9%, the LiPE came out at 2.72 and the IC50 worked out at 617 nM. For the same compound, the inhibition at 10 µM at ERα stood at 0%.

Take `COc1ccc2oc(=O)c(-c3ccc(O)c(F)c3)cc2c1` [derivative 22, 3-(3-fluoro-4-hydroxyphenyl)-6-methoxy-2H-chromen-2-one]: on MAO-B, the inhibition at 10 µM was 94.9%, the LiPE was 3.35 and the IC50 came out at 831 nM. On ERα, the “ER activity (in words)” value is recorded as “prominent” and the inhibition at 10 µM stood at 55.4%.

With `O=c1oc2ccc(O)cc2cc1-c1ccc(F)cc1` [derivative 24, 3-(4-fluorophenyl)-6-hydroxy-2H-chromen-2-one], at MAO-B, the inhibition at 10 µM turned out to be 89.1%, the LiPE is given as 3.37 and the IC50 was determined as 1060 nM. Besides, the inhibition at 10 µM at ERα worked out at 0%.

In turn, `O=c1oc2cc(O)ccc2cc1-c1ccc(F)cc1` [derivative 39] had an MAO-B inhibition % on MAO-B of 26.44%. Moreover, at ERα, the “ER activity (in words)” value was “prominent” and the ER inhibition % was 100.63%.

Compound `CC(=O)Oc1ccc2cc(-c3ccc(F)cc3)c(=O)oc2c1` [derivative 28] showed an MAO-B inhibition % at MAO-B of 59.20%. At ERα, the “ER activity (in words)” value is reported as “prominent” and the ER inhibition % was found to be 57.12%.

`O=c1oc2ccccc2cc1-c1cccc(O)c1` [derivative 31]: the MAO-B inhibition % on MAO-B is listed as 49.60%. Besides, at ERα, the ER inhibition % was determined as 0.00%.

Regarding `COc1ccc2cc(-c3ccc(O)c(F)c3)c(=O)oc2c1` [derivative 20, 3-(3-fluoro-4-hydroxyphenyl)-7-methoxy-2H-chromen-2-one], at MAO-B, the inhibition at 10 µM turned out to be 101%, the LiPE is 3.70 and the IC50 was determined as 391 nM. Besides, on ERα, the “ER activity (in words)” value is “prominent” and the inhibition at 10 µM was 86.1%.

Consider `COc1ccc(-c2cc3ccc(O)cc3oc2=O)cc1` [derivative 12, 7-hydroxy-3-(4-methoxyphenyl)-2H-chromen-2-one], for which, at MAO-B, the inhibition at 10 µM stood at 85.9%, the LiPE amounted to 3.53 and the IC50 was 955 nM. In addition, at ERα, the “ER activity (in words)” value is “prominent” and the inhibition at 10 µM turned out to be 91.3%.

On to `COc1ccc2oc(=O)c(-c3ccc(Oc4ccc(F)cc4)cc3)cc2c1` [derivative 46], for which the MAO-B inhibition % on MAO-B was found to be 19.73%. Further, the ER inhibition % on ERα stood at 0.00%.
